Experimental data: ChEMBL document CHEMBL5625248, “Identification of unique indolylcyanoethylenyl sulfonylanilines as novel structural scaffolds of potential antibacterial agents” (Eur J Med Chem, 2023)
Values after ≈ are worked out from the molar mass of the structure shown. Active and inactive are the calls of the source. No cut-off for these calls is given here.

What was measured:
Escherichia coli [1] = assay: Antibacterial activity against Escherichia coli ATCC 25922 assessed as reduction in biofilm formation; type: functional, organism-based
Acinetobacter baumannii [2] = assay: Antibacterial activity against Acinetobacter baumannii assessed as inhibition of bacterial growth incubated for 18 hrs by two fold broth microdilution assay; type: functional
[3] = Cytotoxicity against human Colon epithelial cell assessed as cell viability upto 50 ug/ml relative to control; type: toxicity, cell-based; settings: colon epithelial cells, up to 50 µg/mL, read-out: Activity
Erythrocyte = assay: Hemolytic activity in human RBC assessed as intact cell surface at 512 ug/ml incubated for 1 hr by microscopic analysis; type: toxicity, cell-based; settings: dose 512 µg/ml
Cell membrane [4] = assay: Induction of membrane depolarization in Escherichia coli ATCC 25922 assessed as increase in fluorescence intensity at 1 to 8 times MIC by DiSC3(5) dye-based fluorescence assay; type: cell membranes; settings: TDE = time-dependent effect
[5] = Cytotoxicity against human Squamous epithelial cell at 20 ug/ml; type: toxicity, cell-based; settings: dose 20 µg/ml
Escherichia coli [6] = assay: Bactericidal activity against Escherichia coli ATCC 25922 assessed as reduction in bacterial growth at 4 times MIC observed after 2 hrs by time-kill kinetic assay; type: functional; design: scale not given: the % may be the effect or the level left
Acinetobacter baumannii [7] = assay: Antibacterial activity against Acinetobacter baumannii assessed as reduction in LDH activity; type: functional, organism-based
Escherichia coli [8] = assay: Bactericidal activity against Escherichia coli ATCC 25922 assessed as reduction in colony forming unit at MIC by time-kill kinetic assay; type: functional
Staphylococcus aureus [9] = assay: Antibacterial activity against methicilin-resistant Staphylococcus aureus N315 assessed as inhibition of bacterial growth incubated for 18 hrs by two fold broth microdilution assay; type: functional
Escherichia coli [10] = assay: Antibacterial activity against Escherichia coli ATCC 25922 assessed as increase in intracellular ROS production by DCFH-DA staining based assay; type: functional, organism-based
Staphylococcus aureus [11] = assay: Antibacterial activity against Staphylococcus aureus ATCC 25923 assessed as inhibition of bacterial growth incubated for 18 hrs by two fold broth microdilution assay; type: functional
Escherichia coli [12] = assay: Antibacterial activity against Escherichia coli ATCC 25922 assessed as reduction in metabolic activity by alamar blue staining based assay; type: functional, organism-based
Acinetobacter baumannii [13] = assay: Antibacterial activity against Acinetobacter baumannii assessed as reduction in biofilm formation; type: functional, organism-based
Acinetobacter baumannii [14] = assay: Bactericidal activity against Acinetobacter baumannii assessed as reduction in bacterial growth at 4 times MIC observed after 2 hrs by time-kill kinetic assay; type: functional; design: scale not given: the % may be the effect or the level left
Acinetobacter baumannii [15] = assay: Antibacterial activity against Acinetobacter baumannii assessed as reduction in biofilm formation at 8 times MIC relative to control; type: functional; design: scale not given: the % may be the effect or the level left
Cell membrane [16] = assay: Induction of membrane depolarization in Acinetobacter baumannii assessed as increase in fluorescence intensity measured at 20 to 120 min by DiSC3(5) dye-based fluorescence assay; type: cell membranes; settings: time 20-120 min
Acinetobacter baumannii [17] = assay: Antibacterial activity against Acinetobacter baumannii assessed as reduction in metabolic activity by alamar blue staining based assay; type: functional, organism-based
[18] = Cytotoxicity against human Colon epithelial cell at 20 ug/ml; type: toxicity, cell-based; settings: dose 20 µg/ml
Cell membrane [19] = assay: Induction of cell membrane disruption in Escherichia coli ATCC 25922 assessed as cell membrane shrank at 2 times MIC by scanning electron microscopic analysis; type: cell membranes
Escherichia coli [20] = assay: Antibacterial activity against Escherichia coli ATCC 25922 assessed as reduction in biofilm formation at 8 times MIC relative to control; type: functional; design: scale not given: the % may be the effect or the level left
Cell membrane [21] = assay: Induction of cell membrane disruption in Escherichia coli ATCC 25922 assessed as increase in protein leakage at 0.5 to 8 times MIC; type: cell membranes
Cell membrane [22] = assay: Induction of cell membrane disruption in Acinetobacter baumannii assessed as increase in protein leakage at 0.5 to 8 times MIC; type: cell membranes
Acinetobacter baumannii [23] = assay: Antibacterial activity against Acinetobacter baumannii assessed as increase in intracellular ROS production by DCFH-DA staining based assay; type: functional, organism-based
Staphylococcus aureus [24] = assay: Antibacterial activity against Staphylococcus aureus ATCC 29213 assessed as inhibition of bacterial growth incubated for 18 hrs by two fold broth microdilution assay; type: functional
Cell membrane [25] = assay: Induction of outer membrane permeabilization in Acinetobacter baumannii assessed as increase in fluorescence intensity by NPN-dye based fluorescence analysis; type: cell membranes
Escherichia coli [26] = assay: Antibacterial activity against Escherichia coli ATCC 25922 assessed as increase in intracellular ROS production by measuring green fluorescence by DCFH-DA staining based microscopic analysis; type: functional, organism-based
Acinetobacter baumannii [27] = assay: Induction of oxidative stress in Acinetobacter baumannii assessed as decrease in GSH activity by Ellman's method; type: functional, organism-based
Cell membrane [28] = assay: Induction of membrane depolarization in Escherichia coli ATCC 25922 assessed as increase in fluorescence intensity measured at 20 to 120 min by DiSC3(5) dye-based fluorescence assay; type: cell membranes; settings: time 20-120 min
Calf thymus DNA [29] = assay: Binding affinity to calf thymus DNA assessed as DNA intercalation by measuring hypochromic shift by absorbance based UV-Vis spectroscopic analysis; type: nucleic-acid assay; settings: Bos taurus
Klebsiella pneumoniae = assay: Antibacterial activity against Klebsiella pneumoniae assessed as inhibition of bacterial growth incubated for 18 hrs by two fold broth microdilution assay; type: functional
Acinetobacter baumannii [30] = assay: Bactericidal activity against Acinetobacter baumannii assessed as reduction in colony forming unit at MIC by time-kill kinetic assay; type: functional
Cell membrane [31] = assay: Induction of cell membrane disruption in Acinetobacter baumannii assessed as cell membrane shrank at 2 times MIC by scanning electron microscopic analysis; type: cell membranes
Cell membrane [32] = assay: Induction of inner membrane damage in Escherichia coli ATCC 25922 at 1 to 4 times MIC by PI staining fluorescence microscopy; type: cell membranes
Escherichia coli [33] = assay: Antibacterial activity against Escherichia coli ATCC 25922 assessed as reduction in LDH activity; type: functional, organism-based
Cell membrane [34] = assay: Induction of membrane depolarization in Acinetobacter baumannii assessed as increase in fluorescence intensity at 1 to 8 times MIC by DiSC3(5) dye-based fluorescence assay; type: cell membranes; settings: TDE = time-dependent effect
Cell membrane [35] = assay: Induction of inner membrane permeabilization in Acinetobacter baumannii assessed as increase in fluorescence intensity by PI staining based fluorescence analysis; type: cell membranes
Escherichia coli [36] = assay: Induction of drug resistance against Escherichia coli ATCC 25922 assessed as fold increase at MIC measured after 16 passages; type: functional
Pseudomonas aeruginosa [37] = assay: Antibacterial activity against Pseudomonas aeruginosa ATCC 27853 assessed as inhibition of bacterial growth incubated for 18 hrs by two fold broth microdilution assay; type: functional
Escherichia coli [38] = assay: Antibacterial activity against Escherichia coli ATCC 25922 assessed as inhibition of bacterial growth incubated for 18 hrs by two fold broth microdilution assay; type: functional
Escherichia coli [39] = assay: Induction of oxidative stress in Escherichia coli ATCC 25922 assessed as decrease in GSH activity by Ellman's method; type: functional, organism-based
Acinetobacter baumannii [40] = assay: Antibacterial activity against Acinetobacter baumannii assessed as increase in intracellular ROS production by measuring green fluorescence by DCFH-DA staining based microscopic analysis; type: functional, organism-based
Escherichia coli [41] = assay: Antibacterial activity against Escherichia coli assessed as inhibition of bacterial growth incubated for 18 hrs by two fold broth microdilution assay; type: functional
Cell membrane [42] = assay: Induction of inner membrane damage in Acinetobacter baumannii at 1 to 4 times MIC by PI staining fluorescence microscopy; type: cell membranes
Staphylococcus aureus [43] = assay: Antibacterial activity against Staphylococcus aureus assessed as inhibition of bacterial growth incubated for 18 hrs by two fold broth microdilution assay; type: functional
Cell membrane [44] = assay: Induction of outer membrane permeabilization in Escherichia coli ATCC 25922 assessed as increase in fluorescence intensity by NPN-dye based fluorescence analysis; type: cell membranes
[45] = Cytotoxicity against human Squamous epithelial cell assessed as cell viability upto 50 ug/ml relative to control; type: toxicity, cell-based; settings: squamous epithelial cells, up to 50 µg/mL, read-out: Activity
Acinetobacter baumannii [46] = assay: Induction of drug resistance against Acinetobacter baumannii assessed as fold increase at MIC measured after 16 passages; type: functional
Cell membrane [47] = assay: Induction of inner membrane permeabilization in Escherichia coli ATCC 25922 assessed as increase in fluorescence intensity by PI staining based fluorescence analysis; type: cell membranes
Pseudomonas aeruginosa [48] = assay: Antibacterial activity against Pseudomonas aeruginosa assessed as inhibition of bacterial growth incubated for 18 hrs by two fold broth microdilution assay; type: functional
Enterococcus faecalis = assay: Antibacterial activity against Enterococcus faecalis assessed as inhibition of bacterial growth incubated for 18 hrs by two fold broth microdilution assay; type: functional
[49] = Hemolytic activity in human RBC assessed as hemolysis at 512 ug/ml incubated for 1 hr relative to control; type: toxicity, cell-based, Erythrocyte; settings: human red blood cells (erythrocytes), at 512 µg/mL, read-out: Activity
Calf thymus DNA [50] = assay: Binding affinity to calf thymus DNA assessed as decrease in fluorescence intensity of AO-DNA binding by acridine orange probe based competitive binding assay; type: nucleic-acid assay; settings: Bos taurus

With `N#C/C(=C\c1cn(CCO)c2ccccc12)S(=O)(=O)c1ccc(N)cc1` the Activity (Escherichia coli [1]) was “Dose-Dependent Effect”, the MIC (Acinetobacter baumannii [2]) was 0.5 µg/mL (≈ 1.36 µM) and the viability [3] was greater than 85%. The Activity (Erythrocyte) was “Non-Toxic”, the Activity (Cell membrane [4]) was “Tde” and the Activity [5] was “Non-Toxic”. For the same compound, the Activity (Escherichia coli [6]) was 57%, the Activity (Acinetobacter baumannii [7]) was “Dose-Dependent Effect” and the Activity (Escherichia coli [8]) was 2.5 log10CFU. The MIC (Staphylococcus aureus [9]) was 2 µg/mL (≈ 5.44 µM), the Activity (Escherichia coli [10]) was “Dose-Dependent Effect” and the MIC (Staphylococcus aureus [11]) was 1 µg/mL (≈ 2.72 µM). For the same compound, the Activity (Escherichia coli [12]) was “Dose-Dependent Effect”, the Activity (Acinetobacter baumannii [13]) was “Dose-Dependent Effect” and the Activity (Acinetobacter baumannii [14]) was 57%. For the same compound, the Activity (Acinetobacter baumannii [15]) was 39%, the Activity (Cell membrane [16]) was “Dose-Dependent Effect” and the Activity (Acinetobacter baumannii [17]) was “Dose-Dependent Effect”. For the same compound, the Activity [18] was “Non-Toxic”, the Activity (Cell membrane [19]) was “Active” and the Activity (Escherichia coli [20]) was 21%. The Activity (Cell membrane [21]) was “Active”, the Activity (Cell membrane [22]) was “Active” and the Activity (Acinetobacter baumannii [23]) was “Dose-Dependent Effect”. For the same compound, the MIC (Staphylococcus aureus [24]) was 2 µg/mL (≈ 5.44 µM), the Activity (Cell membrane [25]) was “Dose-Dependent Effect” and the Activity (Escherichia coli [26]) was “Dose-Dependent Effect”. The Activity (Acinetobacter baumannii [27]) was “Dose-Dependent Effect”, the Activity (Cell membrane [28]) was “Dose-Dependent Effect” and the Activity (Calf thymus DNA [29]) was “Active”. For the same compound, the MIC (Klebsiella pneumoniae) was 8 µg/mL (≈ 21.8 µM), the Activity (Acinetobacter baumannii [30]) was 2 log10CFU and the Activity (Cell membrane [31]) was “Active”. The Activity (Cell membrane [32]) was “Active”, the Activity (Escherichia coli [33]) was “Dose-Dependent Effect” and the Activity (Cell membrane [34]) was “Tde”. The Activity (Cell membrane [35]) was “Dose-Dependent Effect”, the fold change (FC) (Escherichia coli [36]) was 8 and the MIC (Pseudomonas aeruginosa [37]) was 4 µg/mL (≈ 10.9 µM). The MIC (Escherichia coli [38]) was 0.5 µg/mL (≈ 1.36 µM), the Activity (Escherichia coli [39]) was “Dose-Dependent Effect” and the Activity (Acinetobacter baumannii [40]) was “Dose-Dependent Effect”. For the same compound, the MIC (Escherichia coli [41]) was 8 µg/mL (≈ 21.8 µM), the Activity (Cell membrane [42]) was “Active” and the MIC (Staphylococcus aureus [43]) was 2 µg/mL (≈ 5.44 µM). The Activity (Cell membrane [44]) was “Dose-Dependent Effect”, the viability [45] was greater than 85% and the “fold change (FC)” value (Acinetobacter baumannii [46]) was 8. The Activity (Cell membrane [47]) was “Dose-Dependent Effect”, the MIC (Pseudomonas aeruginosa [48]) was 2 µg/mL (≈ 5.44 µM) and the MIC (Enterococcus faecalis) was 4 µg/mL (≈ 10.9 µM). The hemolysis at 1 h, 512 ug/ml [49] was less than 3% and the Activity (Calf thymus DNA [50]) was “Active”.
